Data reported in article PMC10733197, “Utilization of Rosuvastatin and Endogenous Biomarkers in Evaluating the Impact of Ritlecitinib on BCRP, OATP1B1, and OAT3 Transporter Activity” (Pharmaceutical Research, 2023).

How the values were obtained:
OAT1 = target: T1, OAT1 (Homo sapiens, UniProt Q4U2R8); experiment: OAT1-mediated 3H-PAH uptake inhibition in transfected HEK293 cells; format: cell-based; parameters: expressed in transfected cells; host or cells: HEK293; settings: for Fraction Inhibited / Triggers Drug Interaction Cutoff / Cmax,u/IC50 ratio: OAT1; for Fraction Inhibited: Cmax,u/(Cmax,u + IC50) (Eq. 2); for Triggers Drug Interaction Cutoff: Cmax,u/IC50 cutoff 0.1 (FDA); for Triggers Drug Interaction Cutoff / Cmax,u/IC50 ratio: 0.02 (EMA); for Cmax,u/IC50 ratio: cutoff 0.1 (FDA), ritlecitinib 200 mg; for IC50: renal OAT1, PAH 0.5 µM as substrate, 4 min, HEK293, mean ± SD, n = 3
T1 sequence (Q4U2R8 1-563): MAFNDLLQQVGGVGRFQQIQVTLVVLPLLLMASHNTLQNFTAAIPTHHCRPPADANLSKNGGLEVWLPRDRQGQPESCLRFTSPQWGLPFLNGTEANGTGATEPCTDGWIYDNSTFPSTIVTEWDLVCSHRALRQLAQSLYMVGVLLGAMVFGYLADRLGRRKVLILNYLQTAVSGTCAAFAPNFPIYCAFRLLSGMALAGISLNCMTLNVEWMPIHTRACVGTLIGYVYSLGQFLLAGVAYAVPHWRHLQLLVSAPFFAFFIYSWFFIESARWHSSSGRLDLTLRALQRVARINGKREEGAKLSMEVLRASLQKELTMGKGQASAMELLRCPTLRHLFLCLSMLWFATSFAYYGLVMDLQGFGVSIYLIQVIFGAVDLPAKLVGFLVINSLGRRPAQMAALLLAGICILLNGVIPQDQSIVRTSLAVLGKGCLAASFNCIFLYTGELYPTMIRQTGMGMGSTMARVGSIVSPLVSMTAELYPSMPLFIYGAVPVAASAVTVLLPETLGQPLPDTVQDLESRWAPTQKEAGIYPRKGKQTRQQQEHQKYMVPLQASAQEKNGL
Experimental: Sources of human embryonic kidney (HEK) 293 cells expressing individual transfected human solute carriers (SLC), test substrates, and cell culture reagents, as well as detailed cell culture methods, incubations, and sample processing, have been described previously. SLC included hepatic OATP1B1, OATP1B3, and renal OAT1 and OAT3. […] Likewise, the uptake of non-labeled rosuvastatin (Biosynth, San Diego, CA) at 0.3—0.5 µM was determined for OATP1B1 and OATP1B3 at 1—3 min, and CP-I (Frontier Specialty Chemicals, Logan, UT) at 0.1 µM was determined for OATP1B1 and OATP1B3 at 10 min [14].
(§1) In all cases, ritlecitinib (0.018 to 1000 µM) and metabolite M2 (0.018 to 300 µM) was tested over a wide range of final concentrations dissolved in dimethyl sulfoxide (the final concentration of dimethyl sulfoxide in the assays was 1% v/v). For each transporter, the IC50 was estimated using a four-parameter logistic equation (Eq. 1) using GraphPad Prism software (GraphPad Software Inc, La Jolla, CA).1 %UptakeActivity=Bottom+(Top-Bottom)/1+10^(LogIC50-inhib*HillSlope)
At the end of the uptake and inhibition experiment, cellular accumulation of ^3H-PAH and ^3H-E3S was determined using liquid scintillation counting as previously described. Rosuvastatin uptake was determined using a tandem high performance liquid chromatography (LC)-mass spectrometry (MS) assay.
Assumes no substrate-dependent shift in IC50 versus PDA.^1 Each OAT form was singularly transfected in human embryonic kidney 293 cells.

BCRP = target: T2, BCRP (Homo sapiens, UniProt Q9UNQ0); experiment: BCRP inhibition in BCRP-expressing membrane vesicles with rosuvastatin as substrate; format: biochemical; settings: for [I]2/IC50 ratio (G-value): ritlecitinib 200 mg, cutoff = 10
T2 sequence (Q9UNQ0 1-655): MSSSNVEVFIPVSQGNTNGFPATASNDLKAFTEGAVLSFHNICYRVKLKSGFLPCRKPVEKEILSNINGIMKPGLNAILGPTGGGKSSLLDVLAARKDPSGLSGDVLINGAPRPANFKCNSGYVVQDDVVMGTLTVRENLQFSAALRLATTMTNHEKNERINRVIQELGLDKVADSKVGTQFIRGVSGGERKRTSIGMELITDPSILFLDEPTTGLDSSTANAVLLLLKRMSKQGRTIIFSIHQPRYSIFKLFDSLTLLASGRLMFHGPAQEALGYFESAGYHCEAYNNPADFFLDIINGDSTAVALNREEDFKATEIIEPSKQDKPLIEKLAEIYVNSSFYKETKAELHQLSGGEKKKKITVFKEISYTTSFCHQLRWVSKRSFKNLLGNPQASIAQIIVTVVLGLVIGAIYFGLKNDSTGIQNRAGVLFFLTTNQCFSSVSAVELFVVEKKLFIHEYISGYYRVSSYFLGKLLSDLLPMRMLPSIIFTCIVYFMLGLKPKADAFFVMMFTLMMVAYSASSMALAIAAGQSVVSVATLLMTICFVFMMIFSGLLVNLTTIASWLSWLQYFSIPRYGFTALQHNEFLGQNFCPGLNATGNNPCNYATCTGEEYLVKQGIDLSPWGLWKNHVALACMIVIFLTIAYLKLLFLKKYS
Experimental: As described previously, BCRP inhibition by ritlecitinib was measured using BCRP-expressing membrane vesicles with non-labeled rosuvastatin as substrate.
as §1

[1] = human, in vivo
Experimental: This was a Phase 1, 2-period fixed-sequence, multiple-dose, open-label study of the effect of ritlecitinib on the pharmacokinetics and renal clearance of a single, oral dose of rosuvastatin in healthy participants (Fig. 1). The safety and tolerability of rosuvastatin when coadministered with ritlecitinib was also evaluated.
In Period 1 on Day 1, following an overnight fast of at least 10 h, participants received a single oral administration of rosuvastatin 10 mg tablet. Period 1 was immediately followed by Period 2 with no washout. In Period 2 (coadministration), participants received oral ritlecitinib 200 mg once daily (QD) under non-fasting conditions for 7 days. On the morning of Day 8, a single dose of rosuvastatin 10 mg tablet was administered orally within approximately 5 min after administration of a ritlecitinib 200 mg dose under fasting conditions. On Days 9 and 10, participants continued to receive oral ritlecitinib 200 mg QD under non-fasting conditions.

[2] = parameters: method as in data not published; settings: ref data not published, cited from earlier work
CYP3A = settings: cited from earlier work
CYP1A2 = settings: cited from earlier work

% inhibition at the highest concentration tested (OAT1; OAT1 (PAH), highest concentration 300 µM) [%] | Fraction Inhibited (OAT1) | Triggers Drug Interaction Cutoff (OAT1) | Cmax,u/IC50 ratio (OAT1) | IC50 (OAT1) [µM] | Triggers Drug Interaction Cutoff (BCRP; [I]2/IC50 cutoff = 10) | IC50 (BCRP; intestinal BCRP, RSV 0.2 µM as substrate, membrane vesicles, mean ± SD, n = 3) [µM] | [I]2/IC50 ratio (G-value) (BCRP) | [I]2/IC50 ratio (G-value) (BCRP; listed as ritlecitinib) | Fraction Inhibited (OAT1; listed as ritlecitinib) | SMILES | serious AEs, severe AEs, dose reductions or discontinuations due to AEs [1] | steady-state accumulation ratio of AUC ([2]; 200 mg QD regimen, FIH study) | half-life (arithmetic mean) ([2]; 200 mg single dose, first-in-human study) [h] | steady-state of PK reached at ([2]; QD regimens, FIH study) [days] | inhibition of CYP3A (CYP3A; classification in words) | contribution of CYP3A pathway to metabolism of ritlecitinib (CYP3A; ref data not published) [%] | inhibition of CYP1A2 (CYP1A2; classification in words) | contribution of CYP1A2 pathway to metabolism of ritlecitinib (CYP1A2; ref data not published) [%]
40 | < 0.01 | No | < 0.01 | > 300 |  |  |  |  |  | C[C@H]1CC[C@@H](Nc2ncnc3[nH]ccc23)CN1C(=O)CCSC[C@H](N)C(=O)O [M2] |  |  |  |  |  |  |  | 
 | 0.03 | Yes | 0.03 | 156 ± 6 | Yes | 27 ± 2 | 104 | ~ 100 | ≤ 0.1 | C=CC(=O)N1C[C@H](Nc2ncnc3[nH]ccc23)CC[C@@H]1C [Ritlecitinib, ritlecitinib] | no serious adverse events | 1.8 | 1.75 | 4 | moderate inhibitor | < 25 | moderate inhibitor | < 25
